Holding throughout (test): agar serial dilution test, minimum inhibitory concentration
Format in all cases: cell-based

Experiment [1] deals with Staphylococcus aureus. Conditions: Staphylococcus aureus. An excerpt:
(§1) The compounds of this invention are useful for the treatment of bacterial infections amenable to treatment by cephalosporins. […] In accordance with the results obtained with the antibacterial compounds of this invention, their usefulness is established in the fields of comparative pharmacology and microbiology for the purpose of inhibiting the growth of undesirable bacterial colonies. […]

Experiment [2] deals with bacillus subtilis. The settings on record: Bacillus subtilis; BA SU strain 6633.
Source text: as §1

For experiment [3], the system named is bordetella brochiseptica. The settings on record: BO BR strain 4617.
Source text: as §1

The test system of experiment [4] is escherichia coli.
Source text: as §1

Experiment [5] deals with neisseria catarrhalis.
Source text: as §1

Experiment [6] concerns proteus vulgaris. The settings on record: PR VU strain 6896, read-out: Minimum Inhibitory Concentration.
Source text: as §1

Experiment [7] deals with enterobacter aerogenes. Conditions: Klebsiella aerogenes; EN AE strain 13048. An excerpt: (§2) The compounds of this invention are useful for the treatment of bacterial infections amenable to treatment by cephalosporins. […] In accordance with the results obtained with the antibacterial compounds of this invention, their usefulness is established in the fields of comparative pharmacology and microbiology for the purpose of inhibiting the growth of undesirable bacterial colonies.
(§3) The nmr spectra described in the following examples pertains to the spectra obtained upon exchanging acidic hydrogens with deuterium and are described in ppm (δ). The small amount of water and/or solvent carried into the products is readily removed by gently heating the material under vacuum. […]

In experiment [8] the test system is escherichia intermedia. Conditions: Citrobacter intermedius; ES IN strain 65-1.
Source text: as §2, §3

In experiment [9] the test system is herellea species. Conditions: HE SP strain 9955.
Source text: as §2, §3

The subject of experiment [10] is klebsiella pneumoniae.
Source text: as §1

The subject of experiment [11] is salmonella paratyphi. The settings on record: Salmonella enterica, read-out: Minimum Inhibitory Concentration.
Source text: as §1

Experiment [12] concerns pseudomones aeruginosa. The settings on record: PS AE strain 10145.
Source text: as §2, §3

The mark [13] stands for this setting: NE CA strain 8193, read-out: Minimum Inhibitory Concentration.
Where [14] appears, read: KL PN strain 10031, read-out: Minimum Inhibitory Concentration.
[15] abbreviates: read-out: Minimum Inhibitory Concentration.

In brackets after ≈: the same amount, converted by molar mass. Where two headings read alike, the source gives them in different places.

Take `CC(=O)OCC1=C(C(=O)O)N2C(=O)[C@@H](NC(=O)CSC(=NC#N)SCC#N)[C@H]2SC1` [Example 7, 7-[2-[(cyanoimino) (cyanomethylthio)methylthio]acetamido]cephalosporanic acid]: the MIC in experiment [1] (ST AU strain 53-180) was found to be 0.976 µg/mL (≈ 2.08 µM); in [1] (ST AU strain 6538P), 0.488 µg/mL (≈ 1.04 µM); in [1] (ST AU strain CHP), 195 µg/mL (≈ 415 µM); in experiment [1] (ST AU strain Smith), 0.488 µg/mL (≈ 1.04 µM); in experiment [2], 0.061 µg/mL (≈ 0.13 µM); in [3], 15.6 µg/mL (≈ 33.2 µM). For the same compound, the MIC is 31.3 µg/mL (≈ 66.7 µM) in [4] (ES CO strain 9637); 31.3 µg/mL (≈ 66.7 µM) in experiment [5] (setting [13]); 31.3 µg/mL (≈ 66.7 µM) in experiment [6]; 7.81 µg/mL (≈ 16.6 µM) in experiment [7]; 62.5 µg/mL (≈ 133 µM) in experiment [8]; 31.3 µg/mL (≈ 66.7 µM) in [9].
In the case of `CC(=O)OCC1=C(C(=O)O)N2C(=O)[C@@H](NC(=O)CSC(=NS(C)(=O)=O)SCC#N)[C@H]2SC1` [Example 14, 7-[2-[(cyanomethylthio)(methylsulfonylimino)methylthio]acetamido)cephalosporanic acid], the MIC in [1] (ST AU strain 53-180) was 7.81 µg/mL (≈ 14.9 µM); in experiment [1] (ST AU strain 6538P), 1.95 µg/mL (≈ 3.73 µM); in [1] (ST AU strain CHP), 7.81 µg/mL (≈ 14.9 µM); in [1] (ST AU strain Smith) it was 1.95 µg/mL (≈ 3.73 µM); in experiment [2] it was 0.244 µg/mL (≈ 0.467 µM); in experiment [3], 62.5 µg/mL (≈ 120 µM). The MIC in experiment [4] (ES CO strain 920) came out at 125 µg/mL (≈ 239 µM); in experiment [4] (ES CO strain 9637), 125 µg/mL (≈ 239 µM); in experiment [10] (setting [14]), 31.3 µg/mL (≈ 59.9 µM); in [5] (setting [13]) it was 125 µg/mL (≈ 239 µM); in experiment [6] it was 31.3 µg/mL (≈ 59.9 µM); in experiment [11], 15.6 µg/mL (≈ 29.9 µM). In addition, the results for the MIC in experiment [9] and in experiment [12] were 250 µg/mL (≈ 478 µM) and 125 µg/mL (≈ 239 µM), respectively.
`CC(=O)OCC1=C(C(=O)O)N2C(=O)[C@@H](NC(=O)CSC(SCC#N)=C(C#N)C#N)[C@H]2SC1` [Example 2, 7-(2-[2,2-Dicyano-1-(cyanomethylthio)ethenylthio]acetamido)cephalosporanic acid]: the MIC in experiment [1] (ST AU strain 53-180) worked out at 1.95 µg/mL (≈ 3.95 µM); in [1] (ST AU strain 6538P), 0.488 µg/mL (≈ 0.989 µM); in experiment [1] (ST AU strain CHP), 1.95 µg/mL (≈ 3.95 µM); in [1] (ST AU strain Smith), 0.488 µg/mL (≈ 0.989 µM); in [2], 0.061 µg/mL (≈ 0.124 µM); in experiment [3] it was 62.5 µg/mL (≈ 127 µM). In addition, the MIC in experiment [4] (ES CO strain 920) worked out at 250 µg/mL (≈ 507 µM); in experiment [4] (ES CO strain 9637) it was 31.3 µg/mL (≈ 63.4 µM); in [10] (setting [15]), 15.6 µg/mL (≈ 31.6 µM); in experiment [5] (setting [15]), 15.6 µg/mL (≈ 31.6 µM); in experiment [6] it was 31.3 µg/mL (≈ 63.4 µM); in experiment [11] it was 15.6 µg/mL (≈ 31.6 µM). Further, the MIC in [9] was 250 µg/mL (≈ 507 µM).
Consider `CC(=O)OCC1=C(C(=O)O)N2C(=O)[C@@H](NC(=O)CSC(=C[N+](=O)[O-])SCC#N)[C@H]2SC1` [Example 6, 7-[2-(1-Cyanomethylthio-2-nitroethenylthio)acetamido]cephalosporanic acid], for which the MIC in experiment [1] (ST AU strain 53-180) was determined as 3.9 µg/mL (≈ 7.98 µM); in [1] (ST AU strain 6538P) it was 0.976 µg/mL (≈ 2 µM); in experiment [1] (ST AU strain CHP), 3.9 µg/mL (≈ 7.98 µM); in experiment [1] (ST AU strain Smith) it was 0.976 µg/mL (≈ 2 µM); in experiment [2] it was 0.122 µg/mL (≈ 0.25 µM); in experiment [3] it was 125 µg/mL (≈ 256 µM). For the same compound, the MIC in [4] (ES CO strain 920) was 125 µg/mL (≈ 256 µM); in [4] (ES CO strain 9637), 62.5 µg/mL (≈ 128 µM); in experiment [10] (setting [14]) it was 62.5 µg/mL (≈ 128 µM); in [5] (setting [13]), 62.5 µg/mL (≈ 128 µM); in [6] it was 31.3 µg/mL (≈ 64.1 µM); in [11], 7.81 µg/mL (≈ 16 µM). Besides, the MIC in experiment [8] came to 250 µg/mL (≈ 512 µM); in experiment [9], 125 µg/mL (≈ 256 µM); in experiment [12], 250 µg/mL (≈ 512 µM).
On to `CC(=O)OCC1=C(C(=O)O)N2C(=O)[C@@H](NC(=O)CSC(=NC#N)SCc3ccc(Cl)cc3)[C@H]2SC1` [Example 18, 7-[2-[(4-Chlorophenylmethylthio) (cyanoimino)methylthio]acetamido]cephalosporanic acid], for which the MIC in experiment [1] (ST AU strain 53-180) is 3.9 µg/mL (≈ 7.03 µM); in [1] (ST AU strain 6538P), 1.95 µg/mL (≈ 3.51 µM); in experiment [1] (ST AU strain CHP) it was 7.81 µg/mL (≈ 14.1 µM); in experiment [1] (ST AU strain Smith), 1.95 µg/mL (≈ 3.51 µM); in experiment [2], 0.488 µg/mL (≈ 0.879 µM); in [3] it was 125 µg/mL (≈ 225 µM). For the same compound, the MIC amounted to 250 µg/mL (≈ 450 µM) in experiment [4] (ES CO strain 920); 250 µg/mL (≈ 450 µM) in experiment [4] (ES CO strain 9637); 125 µg/mL (≈ 225 µM) in experiment [10] (setting [14]); 250 µg/mL (≈ 450 µM) in experiment [5] (setting [13]); 62.5 µg/mL (≈ 113 µM) in experiment [6]; 31.3 µg/mL (≈ 56.4 µM) in [11].
